We go through 52 molecules from ChEMBL document CHEMBL3228021, “Studies on analgesic agents. 1.1a Preparation of 1,2-diphenyl-2-(4-substituted 1-piperazinyl)ethanol derivatives and structure-activity relationships” (J Med Chem, 1979).

The test system of data set [1] is Mus musculus. Kind of data set: Analgesic activity in sc dosed ddN mouse assessed as inhibition of light radiation-induced thermal pain by D'Amour-Smith method. Format: functional.
Data set [2] concerns Mus musculus. The data set is described as follows: Analgesic activity in po dosed ddN mouse assessed as inhibition of phenylquinone-induced writhing. Type of data set: functional.
Data set [3] has as its system Mus musculus. Kind of data set: Toxicity in sc dosed ddN mouse light radiation-induced thermal pain model. Format: organism-based. Conditions: in vivo.
For data set [4], the species on record is Rattus norvegicus. Kind of data set: Toxicity in morphine-dependent rat assessed as induction of physical dependence liability by substitution test. Format: organism-based. The note with it: in vivo.
The species entered for data set [5] is Mus musculus. Kind of data set: Toxicity in mouse assessed as induction of physical dependence liability by jumping test. Format: organism-based. Conditions: in vivo.
The nature of data set [6]: Acute lethal toxicity in po dosed mouse measured after 1 week. Type of data set: organism-based. The note with it: in vivo.
The nature of data set [7]: Acute lethal toxicity in sc dosed rat measured after 1 week. Format: organism-based. Conditions: in vivo.
For data set [8], the system named is Mus musculus. Kind of data set: Analgesic activity in po dosed ddN mouse assessed as inhibition of light radiation-induced thermal pain by D'Amour-Smith method. Format: functional.
The test system of another data set is Rhesus monkey. Kind of data set: Toxicity in morphine-dependent monkey assessed as induction of physical dependence liability by single dose suppression test. Format: organism-based, Macaca mulatta. The note with it: in vivo.
Data set [9] in a line: Acute lethal toxicity in sc dosed mouse measured after 1 week. Conditions: in vivo. Type of data set: organism-based.
Data set [10] is described as follows: Acute lethal toxicity in po dosed rat measured after 1 week. Format: organism-based. Conditions: in vivo.
Data set [11] has as its system Rattus norvegicus. Kind of data set: Analgesic activity in po dosed Wistar rat assessed as inhibition of tail pressing-induced mechanical pain by Haffner method. Format: functional.
The nature of data set [12]: Toxicity in po dosed Wistar rat tail pressing-induced mechanical pain model. Conditions: in vivo. Type of data set: organism-based.
Where [13] appears, read: Mus musculus, ddN, sc, read-out: ED50.

Regarding `COc1ccc(CN2CCN([C@H](c3ccccc3)[C@H](O)c3ccccc3)CC2)cc1`, the ED50 in the data set on Mus musculus [1] (setting [13]) was found to be 40.1 mg/kg. Regarding `COc1ccc(CN2CCN([C@@H](c3ccccc3)[C@@H](O)c3ccccc3)CC2)cc1`, in the data set with Mus musculus [1] (setting [13]), the ED50 was 13.5 mg/kg. The same measure, in the same setting: for `COc1ccc(CN2CCN([C@H](c3ccccc3Cl)[C@H](O)c3ccccc3)CC2)cc1.Cl` the value was 58.4 mg/kg. Same read-out and setting: for `COc1ccc(CN2CCN([C@@H](c3ccccc3Cl)[C@@H](O)c3ccccc3)CC2)cc1.Cl` the value was > 160 mg/kg. For `COc1ccc(CN2CCN(C(c3ccccc3)C(O)c3ccccc3)CC2)cc1` (racemic), the 50% effective dose (ED50) in the data set with Mus musculus [2] is 31.1 mg/kg; in the data set on Mus musculus [3] it was 15.2 mg/kg; with Mus musculus [1] (setting [13]) it was > 160 mg/kg. For `Cc1ccc(CN2CCN(C(c3ccccc3)C(O)c3ccccc3)CC2)cc1.Cl.O` (racemic), the ED50 in the data set with Mus musculus [2] is 43.7 mg/kg; in the data set on Mus musculus [1] (setting [13]), > 160 mg/kg. Consider `Cl.O=[N+]([O-])c1ccc(CN2CCN(C(c3ccccc3)C(O)c3ccccc3)CC2)cc1` (racemic), for which the figures for the ED50 in the data set with Mus musculus [2] and with Mus musculus [1] (setting [13]) were 40 mg/kg and > 160 mg/kg, respectively. Take `CCOc1ccc(CN2CCN(C(c3ccccc3Cl)C(O)c3ccccc3)CC2)cc1.Cl` (racemic): in the data set on Mus musculus [1] (setting [13]), the ED50 was > 160 mg/kg.

For `Cl.OC(c1ccccc1)C(c1ccccc1Cl)N1CCN(Cc2ccc(OCc3ccccc3)cc2)CC1` (racemic), the ED50 in the data set with Mus musculus [1] (setting [13]) is > 160 mg/kg.

On to `COc1ccccc1CN1CCN(C(c2ccccc2)C(O)c2ccccc2)CC1.Cl.O` (racemic), for which the median effective dose (ED50) in the data set on Mus musculus [1] (setting [13]) was > 160 mg/kg.

In the case of `COc1ccccc1CN1CCN(C(c2ccccc2Cl)C(O)c2ccccc2)CC1.Cl.O` (racemic), the ED50 in the data set on Mus musculus [1] (setting [13]) is > 160 mg/kg. In the case of `COc1cccc(CN2CCN(C(c3ccccc3Cl)C(O)c3ccccc3)CC2)c1.Cl` (racemic), the ED50 in the data set with Mus musculus [1] (setting [13]) is > 160 mg/kg. `COc1cccc(CN2CCN(C(c3ccccc3C)C(O)c3ccccc3)CC2)c1.Cl.O` (racemic): in the data set on Mus musculus [1] (setting [13]), the ED50 is > 160 mg/kg.

For the molecule `COc1ccc(CN2CCN(C(c3ccccc3Cl)C(O)c3ccccc3)CC2)cc1OC.Cl` (racemic), the ED50 in the data set on Mus musculus [1] (setting [13]) was > 160 mg/kg.

For the molecule `Cl.OC(c1ccccc1)C(c1ccccc1Cl)N1CCN(Cc2ccc3c(c2)OCO3)CC1` (racemic), the ED50 in the data set with Mus musculus [1] (setting [13]) is > 160 mg/kg. On the same count and under the same terms, to `COc1cc(CN2CCN(C(c3ccccc3Cl)C(O)c3ccccc3)CC2)cc(OC)c1OC.Cl.O` (racemic) belongs > 160 mg/kg; to `COc1ccc(CN2CCN(C(c3ccccc3)C(O)c3ccccc3OC)CC2)cc1.Cl` (racemic), > 160 mg/kg; to `COc1ccc(CN2CCN(C(c3ccccc3)C(O)c3ccc(OC)cc3)CC2)cc1.Cl.O` (racemic), > 160 mg/kg.

Consider `COc1ccc(CN2CCN(C(c3ccccc3)C(O)c3ccccc3Cl)CC2)cc1.Cl` (racemic), for which the ED50 with Mus musculus [1] (setting [13]) is > 160 mg/kg. Same read-out and setting: to `COc1ccc(CN2CCN(C(c3ccccc3)C(O)c3cccc(Cl)c3)CC2)cc1.Cl.O` (racemic) belongs > 160 mg/kg; to `COc1ccc(CN2CCN(C(c3ccccc3)C(O)c3ccc(Cl)cc3)CC2)cc1.Cl` (racemic), > 160 mg/kg. As to `COc1ccc(CN2CCN(C(c3ccccc3)C(O)c3ccccc3C)CC2)cc1.Cl` (racemic), the ED50 turned out to be 100 mg/kg in the data set with Mus musculus [2] and 120 mg/kg with Mus musculus [1] (setting [13]). The matching figures for `COc1ccc(CN2CCN(C(c3ccccc3)C(O)c3cccc(C)c3)CC2)cc1.Cl` (racemic): 18.5 mg/kg and 26.4 mg/kg. The matching figures for `COc1ccc(CN2CCN(C(c3ccccc3)C(O)c3ccc(C)cc3)CC2)cc1.Cl` (racemic): 85.9 mg/kg and 31.7 mg/kg.

As for `COc1ccc(CN2CCN(C(c3ccccc3)C(O)c3ccc(O)cc3)CC2)cc1.Cl` (racemic), the ED50 in the data set on Mus musculus [1] (setting [13]) is > 160 mg/kg. As for `COc1ccc(CN2CCN(C(c3ccccc3OC)C(O)c3ccccc3)CC2)cc1.Cl` (racemic), the Activity entry in the data set filed under Rattus norvegicus [4] and in the data set filed under Mus musculus [5] was “Non-toxic” each time. Turning to `COc1ccc(CN2CCN(C(c3cccc(OC)c3)C(O)c3ccccc3)CC2)cc1.Cl` (racemic), in the data set with Mus musculus [1] (setting [13]), the ED50 was > 160 mg/kg. `COc1ccc(CN2CCN(C(c3ccc(OC)cc3)C(O)c3ccccc3)CC2)cc1.Cl` (racemic): the ED50 in the data set on Mus musculus [2] came to 24.1 mg/kg; in the data set with Mus musculus [1] (setting [13]), 37.4 mg/kg. The matching figures for `COc1ccc(CN2CCN(C(c3cccc(Cl)c3)C(O)c3ccccc3)CC2)cc1.Cl` (racemic): 27.2 mg/kg and 48.1 mg/kg.

Consider `COc1ccc(CN2CCN(C(c3ccc(Cl)cc3)C(O)c3ccccc3)CC2)cc1.Cl` (racemic), for which the ED50 in the data set with Mus musculus [2] was 16.4 mg/kg; with Mus musculus [1] (setting [13]), 39.7 mg/kg.

With `COc1ccc(CN2CCN(C(c3cccc(C)c3)C(O)c3ccccc3)CC2)cc1.Cl` (racemic), the values for the ED50 in the data set with Mus musculus [2] and in the data set with Mus musculus [1] (setting [13]) were 27.7 mg/kg and 28 mg/kg, respectively. `COc1ccc(CN2CCN(C(c3ccc(C)cc3)C(O)c3ccccc3)CC2)cc1.Cl` (racemic): the ED50 in the data set with Mus musculus [2] was 16.8 mg/kg; in the data set with Mus musculus [1] (setting [13]), 14.1 mg/kg. For `COc1ccc(CN2CCN(C(c3ccc([N+](=O)[O-])cc3)C(O)c3ccccc3)CC2)cc1.Cl` (racemic), the values for the ED50 with Mus musculus [2] and with Mus musculus [1] were 10.2 mg/kg and 8.11 mg/kg, respectively. `COc1ccc(CN2CCN(C(c3ccccc3Cl)C(O)c3ccc(C)cc3)CC2)cc1.Cl` (racemic): the ED50 in the data set with Mus musculus [1] (setting [13]) is > 160 mg/kg. Same read-out and setting: for `COc1ccc(CN2CCN(C(c3ccc(Cl)cc3)C(O)c3ccc(C)cc3)CC2)cc1.Cl` (racemic) the value was > 160 mg/kg. Still for that read-out and setting: for `COc1ccc(CN2CCN(C(c3ccccc3OC)C(O)c3ccc(C)cc3)CC2)cc1.Cl` (racemic) the value was > 160 mg/kg. As to `COc1ccc(CN2CCN(C(c3ccccc3)C(OC(C)=O)c3ccccc3)CC2)cc1.Cl` (racemic), the median effective dose (ED50) was 46.3 mg/kg in the data set with Mus musculus [2] and 80 mg/kg in the data set with Mus musculus [1] (setting [13]).

`CCC(=O)OC(c1ccccc1)C(c1ccccc1)N1CCN(Cc2ccc(OC)cc2)CC1.Cl` (racemic): the ED50 in the data set with Mus musculus [2] turned out to be 44.3 mg/kg; with Mus musculus [1] (setting [13]), 73.1 mg/kg. As for `CCC(=O)OC(c1ccccc1)C(c1ccccc1Cl)N1CCN(Cc2ccc(OC)cc2)CC1.Cl` (racemic), the median effective dose (ED50) in the data set on Mus musculus [2] is 90 mg/kg; in the data set on Mus musculus [1] (setting [13]), > 160 mg/kg. For `OC(c1ccccc1)C(c1ccccc1)N1CCN(c2ccccc2Cl)CC1` (racemic), in the data set on Mus musculus [1] (setting [13]), the ED50 is > 160 mg/kg.

For `COc1ccccc1N1CCN(C(c2ccccc2)C(O)c2ccccc2)CC1` (racemic), in the data set with Mus musculus [1] (setting [13]), the ED50 was > 160 mg/kg. Same read-out and setting: to `OC(c1ccccc1)C(c1ccccc1)N1CCN(c2ccccn2)CC1` (racemic) belongs > 160 mg/kg. For `Cl.OC(c1ccccc1)C(c1ccccc1)N1CCN(C2CCCCC2)CC1` (racemic), the ED50 in the data set on Mus musculus [3] is > 80 mg/kg. As to `Cl.OC(c1ccccc1)C(c1ccccc1)N1CCN(Cc2ccccc2)CC1` (racemic), the ED50 with Mus musculus [2] was 20.6 mg/kg; in the data set with Mus musculus [1] (setting [13]), > 160 mg/kg. As for `OC(c1ccccc1)C(c1ccccc1)N1CCN(CCc2ccccc2)CC1` (racemic), in the data set with Mus musculus [1] (setting [13]), the ED50 is > 160 mg/kg. Consider `COc1ccc(CN2CCN(C(c3ccccc3Cl)C(O)c3ccccc3)CC2)cc1.Cl` (racemic; 38), for which the LD50 at 168 h was 509 mg/kg in data set [6], 584 mg/kg in [7], 431 mg/kg in [9] and > 3200 mg/kg in data set [10]. The Activity result in the data set listed under Rattus norvegicus [4], in the data set listed under Mus musculus [5] and in the data set with Rhesus monkey was “Non-toxic” in each case. In addition, the ED50 came to 20.9 mg/kg in the data set with Mus musculus [2], 165 mg/kg in the data set on Mus musculus [8], 228 mg/kg with Rattus norvegicus [11] and 79 mg/kg in the data set with Mus musculus [1]. Turning to `COc1ccc(CN2CCN(C(c3ccccc3C)C(O)c3ccccc3)CC2)cc1.Cl` (racemic; 41), the Activity entry in the data set listed under Rattus norvegicus [4] and in the data set filed under Mus musculus [5] was “Non-toxic” throughout. Also, the ED50 with Mus musculus [1] came out at 65.2 mg/kg. For `COc1ccc(CN2CCN(C(c3ccccc3Cl)C(O)c3ccccc3)CC2)cc1.Cl` (racemic; 53), the ED50 in the data set with Mus musculus [1] is >160 mg/kg. On the same count and under the same terms, to `COc1ccc(CN2CCN(C(c3ccccc3C)C(O)c3ccccc3)CC2)cc1.Cl` (racemic; 54) belongs >160 mg/kg; to `COc1ccc(CN2CCN(C(c3ccc([N+](=O)[O-])cc3)C(O)c3ccccc3)CC2)cc1.Cl` (stereo in doubt; 55), >160 mg/kg. Take `Cc1c(N(C)C)c(=O)n(-c2ccccc2)n1C` [AMINOPYRINE]: the LD50 at 168 h is 523 mg/kg in data set [6], 511 mg/kg in data set [7], 385 mg/kg in data set [9] and > 2000 mg/kg in data set [10]. Besides, in data set [12], the 50% lethal dose (LD50) is > 2560 mg/kg. For the same molecule, the ED50 with Mus musculus [3] was > 640 mg/kg. For the molecule `COc1ccc2c3c1O[C@H]1[C@@H](O)C=C[C@H]4[C@@H](C2)N(C)CC[C@@]341.COc1ccc2c3c1O[C@H]1[C@@H](O)C=C[C@H]4[C@@H](C2)N(C)CC[C@@]341.O.O=P(O)(O)O.O=P(O)(O)O` [CODEINE PHOSPHATE], the LD50 at 168 h is 574 mg/kg in [6], 365 mg/kg in [7], 271 mg/kg in data set [9] and 1180 mg/kg in data set [10]. Moreover, the ED50 was found to be 8.21 mg/kg with Mus musculus [2], 98.4 mg/kg in the data set with Mus musculus [8], 196 mg/kg in the data set on Rattus norvegicus [11] and 28.1 mg/kg in the data set on Mus musculus [1] (setting [13]).
